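Compound exposure: 48 hours, 5 concentrations, 96-well plates. GI50 = concentration required for 50% inhibition of growth. At the TGI there is no net growth.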
Key:
Assay in all cases: NCI tumour cell line growth inhibition, 48 h
BT-549 breast = test system: BT-549 breast
LOX IMVI melanoma = test system: LOX IMVI melanoma
MDA-MB-435 = test system: MDA-MB-435
MOLT-4 leukemia = test system: MOLT-4 leukemia
NCI-H226 lung = test system: NCI-H226 lung
SW-620 colon = test system: SW-620 colon
U251 CNS = test system: U251 CNS
UACC-62 melanoma = test system: UACC-62 melanoma
M19-MEL melanoma = test system: M19-MEL melanoma
SNB-78 CNS = test system: SNB-78 CNS

COc1ccc2c3ccnc(C(F)(F)F)c3n(CCCCN)c2c1
GI50 (BT-549 breast): 3.04 µM
TGI (BT-549 breast): 12.5 µM
GI50 (LOX IMVI melanoma): 4.38 µM
TGI (LOX IMVI melanoma): 17 µM
GI50 (MDA-MB-435): 5.69 µM
TGI (MDA-MB-435): 20.7 µM
GI50 (MOLT-4 leukemia): 3.93 µM
TGI (MOLT-4 leukemia): 12.8 µM
GI50 (NCI-H226 lung): 7.42 µM
TGI (NCI-H226 lung): 30.5 µM
GI50 (SW-620 colon): 3.28 µM
TGI (SW-620 colon): 14.6 µM
GI50 (U251 CNS): 7.31 µM
TGI (U251 CNS): 21.2 µM
GI50 (UACC-62 melanoma): 10.8 µM
TGI (UACC-62 melanoma): 23.2 µM

CC1=CC(C)=N/C(=N/S(=O)(=O)c2cc(C)c(Cl)cc2SCc2ccccc2)NN1
GI50 (BT-549 breast): > 100 µM
TGI (BT-549 breast): > 100 µM
GI50 (LOX IMVI melanoma): > 100 µM
TGI (LOX IMVI melanoma): > 100 µM
GI50 (MDA-MB-435): > 100 µM
TGI (MDA-MB-435): > 100 µM
GI50 (MOLT-4 leukemia): > 100 µM
TGI (MOLT-4 leukemia): > 100 µM
GI50 (NCI-H226 lung): > 100 µM
TGI (NCI-H226 lung): > 100 µM
GI50 (SW-620 colon): > 100 µM
TGI (SW-620 colon): > 100 µM
GI50 (U251 CNS): 82.3 µM
TGI (U251 CNS): > 100 µM
GI50 (UACC-62 melanoma): > 100 µM
TGI (UACC-62 melanoma): > 100 µM

CCCCCCCCCCCCCCNCC(OC)OC
TGI (LOX IMVI melanoma): 33.5 µM
TGI (M19-MEL melanoma): 32.3 µM
TGI (NCI-H226 lung): 34.4 µM
TGI (SNB-78 CNS): 34.3 µM
TGI (SW-620 colon): 33.2 µM
TGI (U251 CNS): 31.6 µM
TGI (UACC-62 melanoma): 34.4 µM

OC1OCC(COc2cc(Cl)c(Cl)cc2Cl)OC1O (centres undefined)
TGI (M19-MEL melanoma): > 100 µM
TGI (MOLT-4 leukemia): > 100 µM
TGI (NCI-H226 lung): > 100 µM
TGI (SNB-78 CNS): 79.7 µM
TGI (SW-620 colon): 47.7 µM
TGI (U251 CNS): > 100 µM
TGI (UACC-62 melanoma): > 100 µM

CC(C)(C)NCC(O)c1ccccc1Cl (centres undefined)
GI50 (BT-549 breast): > 100 µM
TGI (BT-549 breast): > 100 µM
GI50 (LOX IMVI melanoma): > 100 µM
TGI (LOX IMVI melanoma): > 100 µM
GI50 (MDA-MB-435): > 100 µM
TGI (MDA-MB-435): > 100 µM
GI50 (MOLT-4 leukemia): > 100 µM
TGI (MOLT-4 leukemia): > 100 µM
GI50 (NCI-H226 lung): > 100 µM
TGI (NCI-H226 lung): > 100 µM
GI50 (SW-620 colon): > 100 µM
TGI (SW-620 colon): > 100 µM
GI50 (U251 CNS): > 100 µM
TGI (U251 CNS): > 100 µM
GI50 (UACC-62 melanoma): > 100 µM
TGI (UACC-62 melanoma): > 100 µM

NS(=O)(=O)c1ccc(-n2nc3c(c2-c2cccs2)Cc2ccccc2-3)cc1
GI50 (BT-549 breast): 12.4 µM
TGI (BT-549 breast): 26.3 µM
GI50 (LOX IMVI melanoma): 6.58 µM
TGI (LOX IMVI melanoma): 19.9 µM
GI50 (MDA-MB-435): 11.8 µM
TGI (MDA-MB-435): 27.6 µM
GI50 (MOLT-4 leukemia): 1.43 µM
TGI (MOLT-4 leukemia): 3.97 µM
GI50 (NCI-H226 lung): 4.9 µM
TGI (NCI-H226 lung): 26.2 µM
GI50 (SW-620 colon): 10.2 µM
TGI (SW-620 colon): 23.4 µM
GI50 (U251 CNS): 12.3 µM
TGI (U251 CNS): 25.8 µM
GI50 (UACC-62 melanoma): 11.5 µM
TGI (UACC-62 melanoma): 23.7 µM

CC1(C)OCC2OC(n3cnc4c(N)nc(Cl)nc43)C(OS(C)(=O)=O)C2O1 (centres undefined)
TGI (BT-549 breast): > 100 µM
TGI (LOX IMVI melanoma): > 100 µM
TGI (MDA-MB-435): > 100 µM
TGI (MOLT-4 leukemia): > 100 µM
TGI (NCI-H226 lung): > 100 µM
TGI (SW-620 colon): > 100 µM
TGI (U251 CNS): > 100 µM
TGI (UACC-62 melanoma): > 100 µM

COC(=O)C1=C(C)NC(=S)NC1c1ccc(N(CCCl)CCCl)cc1Cl (centres undefined)
GI50 (BT-549 breast): 73.5 µM
TGI (BT-549 breast): > 100 µM
TGI (LOX IMVI melanoma): > 100 µM
TGI (MDA-MB-435): 37.4 µM
TGI (MOLT-4 leukemia): 40 µM
TGI (NCI-H226 lung): > 45.7 µM
TGI (SW-620 colon): > 100 µM
TGI (U251 CNS): > 100 µM
TGI (UACC-62 melanoma): 16.1 µM

CC1=CC2(C)/C=C(C)/C=C\CC(O)/C=C3/C=CC(=C4C(=O)OC2(CC1C)C4=O)OC3 (centres undefined)
GI50 (BT-549 breast): 2.11 µM
TGI (BT-549 breast): 4.79 µM
GI50 (LOX IMVI melanoma): 1.63 µM
TGI (LOX IMVI melanoma): 3.2 µM
GI50 (MDA-MB-435): 2 µM
TGI (MDA-MB-435): 5.12 µM
GI50 (MOLT-4 leukemia): 0.47 µM
TGI (MOLT-4 leukemia): > 20.4 µM
GI50 (NCI-H226 lung): 11.8 µM
TGI (NCI-H226 lung): 47.9 µM
GI50 (SW-620 colon): 0.512 µM
TGI (SW-620 colon): 2.72 µM
GI50 (U251 CNS): 1.64 µM
TGI (U251 CNS): 3.58 µM
GI50 (UACC-62 melanoma): 3.3 µM
TGI (UACC-62 melanoma): 10.8 µM

Clc1ccc2c(NC3CCC(N4CCCCC4)CC3)ccnc2c1 (centres undefined)
TGI (BT-549 breast): 42.8 µM
TGI (LOX IMVI melanoma): 33 µM
TGI (MDA-MB-435): 28.5 µM
TGI (MOLT-4 leukemia): > 100 µM
TGI (NCI-H226 lung): 48.1 µM
TGI (SW-620 colon): > 100 µM
TGI (U251 CNS): 57.1 µM
TGI (UACC-62 melanoma): 32.2 µM

Cc1ccc2ccccc2c1CSc1nc(N)nc2c1ncn2CC(C)C
TGI (BT-549 breast): > 100 µM
TGI (LOX IMVI melanoma): > 100 µM
TGI (MDA-MB-435): > 84.4 µM
TGI (MOLT-4 leukemia): 29.7 µM
TGI (NCI-H226 lung): 72.7 µM
TGI (SW-620 colon): > 100 µM
TGI (U251 CNS): > 100 µM
TGI (UACC-62 melanoma): > 100 µM

CC1Cc2c(Cl)ncnc2N(C)c2ccccc21 (centres undefined)
GI50 (BT-549 breast): 5 µM
TGI (BT-549 breast): 33.9 µM
GI50 (LOX IMVI melanoma): 1.71 µM
TGI (LOX IMVI melanoma): 3.43 µM
GI50 (MDA-MB-435): 3.24 µM
TGI (MDA-MB-435): 16.7 µM
GI50 (MOLT-4 leukemia): 3.46 µM
TGI (MOLT-4 leukemia): > 100 µM
GI50 (NCI-H226 lung): 2.05 µM
TGI (NCI-H226 lung): 21.7 µM
GI50 (SW-620 colon): 3.08 µM
TGI (SW-620 colon): 11.2 µM
GI50 (U251 CNS): 3.92 µM
TGI (U251 CNS): 37.9 µM
GI50 (UACC-62 melanoma): 3.32 µM
TGI (UACC-62 melanoma): 12.8 µM

C[C@]12CC[C@H]3[C@@H](CC[C@]4(O)C[C@@H](O)CC[C@]34C=O)[C@@]1(O)CC[C@@H]2C1=CC(=O)OC1
TGI (BT-549 breast): 1.08 µM
TGI (LOX IMVI melanoma): 2.46 µM
TGI (MDA-MB-435): 1.83 µM
TGI (MOLT-4 leukemia): 0.907 µM
TGI (NCI-H226 lung): 2.69 µM
TGI (SW-620 colon): 2.79 µM
TGI (U251 CNS): 2.9 µM
TGI (UACC-62 melanoma): 3.38 µM

O=C1C=CC2C3C(=O)N(c4ccccc4)C(=O)C3C1N2Cc1ccccc1 (centres undefined)
GI50 (BT-549 breast): 3.45 µM
TGI (BT-549 breast): 8.87 µM
GI50 (LOX IMVI melanoma): 1.61 µM
TGI (LOX IMVI melanoma): 3.13 µM
GI50 (MDA-MB-435): 2.72 µM
TGI (MDA-MB-435): 8.05 µM
GI50 (MOLT-4 leukemia): 1.72 µM
TGI (MOLT-4 leukemia): 5.42 µM
TGI (NCI-H226 lung): 13.8 µM
GI50 (SW-620 colon): 1.93 µM
TGI (SW-620 colon): 4.32 µM
GI50 (U251 CNS): 2.29 µM
TGI (U251 CNS): 11.8 µM
GI50 (UACC-62 melanoma): 2.01 µM
TGI (UACC-62 melanoma): 6.19 µM

CCC[CH2][Sn]1([CH2]CCC)[O]C(=O)c2cccc([N+](=O)[O-])c2C(=O)[O]1
GI50 (BT-549 breast): 0.849 µM
TGI (BT-549 breast): 2.09 µM
GI50 (LOX IMVI melanoma): 0.259 µM
TGI (LOX IMVI melanoma): 0.7 µM
GI50 (MDA-MB-435): 0.594 µM
TGI (MDA-MB-435): 1.91 µM
GI50 (MOLT-4 leukemia): 0.409 µM
TGI (MOLT-4 leukemia): 2.98 µM
GI50 (NCI-H226 lung): 0.331 µM
TGI (NCI-H226 lung): 1.34 µM
GI50 (SW-620 colon): 0.171 µM
TGI (SW-620 colon): 0.54 µM
GI50 (U251 CNS): 0.633 µM
TGI (U251 CNS): 1.94 µM
GI50 (UACC-62 melanoma): 0.381 µM
TGI (UACC-62 melanoma): 1.5 µM

CC(C)[C@@H](C(=O)O[C@@H]1/C=C/C(=O)O[C@@H](C)CCC/C=C/[C@@H]2C[C@H](O)C[C@H]21)N(C)C
GI50 (BT-549 breast): 9.41 µM
TGI (BT-549 breast): 32 µM
GI50 (LOX IMVI melanoma): 17 µM
TGI (LOX IMVI melanoma): 39.9 µM
GI50 (MDA-MB-435): 7.43 µM
TGI (MDA-MB-435): 41.4 µM
GI50 (MOLT-4 leukemia): 15.9 µM
TGI (MOLT-4 leukemia): 42.8 µM
GI50 (NCI-H226 lung): 9.21 µM
TGI (NCI-H226 lung): 36.4 µM
GI50 (SW-620 colon): 7.03 µM
TGI (SW-620 colon): 20.7 µM
GI50 (U251 CNS): 30.2 µM
TGI (U251 CNS): > 100 µM
GI50 (UACC-62 melanoma): 21.7 µM
TGI (UACC-62 melanoma): > 72.1 µM

COc1cc(OC)c(/C=C/C(=O)c2c(OC)cc(OC)cc2OC)c(OC)c1
GI50 (BT-549 breast): 0.931 µM
TGI (BT-549 breast): > 24.5 µM
GI50 (LOX IMVI melanoma): 0.782 µM
TGI (LOX IMVI melanoma): 4.54 µM
GI50 (MDA-MB-435): 0.235 µM
TGI (MDA-MB-435): 0.694 µM
GI50 (MOLT-4 leukemia): 1.53 µM
TGI (MOLT-4 leukemia): > 100 µM
GI50 (NCI-H226 lung): 3.41 µM
TGI (NCI-H226 lung): > 100 µM
GI50 (SW-620 colon): 0.417 µM
TGI (SW-620 colon): 2.91 µM
GI50 (U251 CNS): 1.11 µM
TGI (U251 CNS): 9.43 µM
GI50 (UACC-62 melanoma): 0.414 µM
TGI (UACC-62 melanoma): 4.14 µM

From PubChem BioAssay (NCI)
